The target in assay [1] is T1, dihydropyridine site associated with the calcium slow channel (Rattus norvegicus, UniProt Q02485).
T1 construct: microsomal membrane preparations prepared from skeletal muscle of rat (Wistar) hind limbs; from tissue; host or cells: skeletal muscle of rat (Wistar) hind limbs, microsomal fraction
In words: Affinity for the dihydropyridine binding site, displacement of [3H]-PN 200-110. Also on record: species or system rat (Wistar). The protocol:
Affinity for the Dihydropyridine Binding Site
This study was carried out on microsomal membrane preparations prepared from skeletal muscle of rat (Wistar) hind limbs.
The rats are killed by decapitation. The skeletal muscles are removed and washed in buffer I (20 mM MOPS/KOH pH 7.4, 0.3M sucrose, 1 mM EDTA, 0.1 mM iodoacetamide, 1 μM pepstatin A, 1 mg/l leupeptin and 0.1 μM PMSF). The muscles are then mechanically fragmented, taken up in 4 volumes of buffer I per gramme of tissue and homogenized.
The homogenate is then centrifuged for 10 minutes at 3,200 g, the pellets are removed and the supernatants are then centrifuged for 20 minutes at 15,000 g, and the supernatants are stirred for 15 minutes at 4° C. in buffer I containing 0.6M final KCl and then centrifgued for 45 minutes at 70,000 g.
The pellets are taken up in buffer I and homogenized in a Potter. The homogenates are centrifuged at 100,000 g for 45 minutes and the pellets thereby obtained correspond to the microsomal fraction used for the studies of binding and displacement.
The activity of the product is assessed by the displacement of [^3 H]-PN 200-110, bound specifically to its receptor associated with the calcium slow channel, by increasing concentrations of the test products. The value obtained (K0.5) for each of the products, which represents the concentration of the product displacing 50% of the [^3 H]-PN 200-110, permits calculation of a true dissociation constant (KI): [formula] where [L*] is the concentration of free [^3 H]-PN 200-110 and Kd the dissociation constant at equilibrium of the [^3 H]-PN 200-110 complex, determined by direct binding.
The KI values of the two products are recorded in Table VI
On the technique in general: Loss of bound radioactivity is the signal in a displacement assay; it reports binding, not function.

Assay [2] addresses isolated rabbit mesenteric artery (Oryctolagus cuniculus, UniProt P15381). Nature of the assay: Study on isolated rabbit mesenteric artery contracted with calcium. It counts as cell-based, rabbit (New Zealand). The note with it: compound of example 50 versus its racemate. The protocol:
Study on Isolated Rabbit Mesenteric Artery Contracted with Calcium
This test is performed on organs removed from male New Zealand rabbits weighing 2.5 to 3 kg, subjected to a water regimen for 18 hours before sacrifice.
After the animal is rapidly sacrificed, the mesenteric artery is removed and dissected into rings 2 mm long; the endothelium is removed mechanically.
After a stabilization period of 90 minutes, the preparations are subjected to a depolarizing medium (35 mM KCl) without calcium (0.1 mM EGTA) for 15 minutes.
A control series is prepared by adding cumulative doses of calcium to the bath every 6 minutes until a maximum of effect is produced. The preparations are then rinsed for a period of 15 minutes and the product is incubated for one hour before renewal of the calcium series.
A single concentration of the product is tested per organ.
The responses obtained in the presence of product are expressed as a percentage of the maximal value of the control series.
The pD'2 value is calculated according to the method of Van Rossum (1963).

The subject of assay [3] is unanesthetized spontaneously hypertensive rats (SHR). In words: Study in unanesthetized spontaneously hypertensive rats (intravenous, systolic blood pressure). It counts as in vivo, rat (SHR). How it is done:
Study in Unanesthetized Spontaneously Hypertensive Rats (SHR)
SHR male rats weighing 280 to 350 g and aged from 18 to 24 weeks are anaesthetized with imalgene® (150 mg/kg i.p.). Two polyethylene catheters are introduced, one into the abdominal aorta for the recording of hemodynamic parameters and the other into the jugular vein for the administration of the products. The catheters are taken through to neck level. The animals are used at least 48 hours after surgical intervention.
The systolic and diastolic abdominal bood pressures are recorded by means of a Statham P23XL transducer on a Gould ES 1000 recorder. The products are administered intravenously in a volume of 0.5 ml/kg. The doses administered of the test compounds are expressed in mg/kg of base. The blood pressure is recorded in continuous fashion up to 6 hours after the treatment.
The changes in systolic blood pressure after treatment are recorded in Table VIII.

T1 sequence (Q02485 whole entry): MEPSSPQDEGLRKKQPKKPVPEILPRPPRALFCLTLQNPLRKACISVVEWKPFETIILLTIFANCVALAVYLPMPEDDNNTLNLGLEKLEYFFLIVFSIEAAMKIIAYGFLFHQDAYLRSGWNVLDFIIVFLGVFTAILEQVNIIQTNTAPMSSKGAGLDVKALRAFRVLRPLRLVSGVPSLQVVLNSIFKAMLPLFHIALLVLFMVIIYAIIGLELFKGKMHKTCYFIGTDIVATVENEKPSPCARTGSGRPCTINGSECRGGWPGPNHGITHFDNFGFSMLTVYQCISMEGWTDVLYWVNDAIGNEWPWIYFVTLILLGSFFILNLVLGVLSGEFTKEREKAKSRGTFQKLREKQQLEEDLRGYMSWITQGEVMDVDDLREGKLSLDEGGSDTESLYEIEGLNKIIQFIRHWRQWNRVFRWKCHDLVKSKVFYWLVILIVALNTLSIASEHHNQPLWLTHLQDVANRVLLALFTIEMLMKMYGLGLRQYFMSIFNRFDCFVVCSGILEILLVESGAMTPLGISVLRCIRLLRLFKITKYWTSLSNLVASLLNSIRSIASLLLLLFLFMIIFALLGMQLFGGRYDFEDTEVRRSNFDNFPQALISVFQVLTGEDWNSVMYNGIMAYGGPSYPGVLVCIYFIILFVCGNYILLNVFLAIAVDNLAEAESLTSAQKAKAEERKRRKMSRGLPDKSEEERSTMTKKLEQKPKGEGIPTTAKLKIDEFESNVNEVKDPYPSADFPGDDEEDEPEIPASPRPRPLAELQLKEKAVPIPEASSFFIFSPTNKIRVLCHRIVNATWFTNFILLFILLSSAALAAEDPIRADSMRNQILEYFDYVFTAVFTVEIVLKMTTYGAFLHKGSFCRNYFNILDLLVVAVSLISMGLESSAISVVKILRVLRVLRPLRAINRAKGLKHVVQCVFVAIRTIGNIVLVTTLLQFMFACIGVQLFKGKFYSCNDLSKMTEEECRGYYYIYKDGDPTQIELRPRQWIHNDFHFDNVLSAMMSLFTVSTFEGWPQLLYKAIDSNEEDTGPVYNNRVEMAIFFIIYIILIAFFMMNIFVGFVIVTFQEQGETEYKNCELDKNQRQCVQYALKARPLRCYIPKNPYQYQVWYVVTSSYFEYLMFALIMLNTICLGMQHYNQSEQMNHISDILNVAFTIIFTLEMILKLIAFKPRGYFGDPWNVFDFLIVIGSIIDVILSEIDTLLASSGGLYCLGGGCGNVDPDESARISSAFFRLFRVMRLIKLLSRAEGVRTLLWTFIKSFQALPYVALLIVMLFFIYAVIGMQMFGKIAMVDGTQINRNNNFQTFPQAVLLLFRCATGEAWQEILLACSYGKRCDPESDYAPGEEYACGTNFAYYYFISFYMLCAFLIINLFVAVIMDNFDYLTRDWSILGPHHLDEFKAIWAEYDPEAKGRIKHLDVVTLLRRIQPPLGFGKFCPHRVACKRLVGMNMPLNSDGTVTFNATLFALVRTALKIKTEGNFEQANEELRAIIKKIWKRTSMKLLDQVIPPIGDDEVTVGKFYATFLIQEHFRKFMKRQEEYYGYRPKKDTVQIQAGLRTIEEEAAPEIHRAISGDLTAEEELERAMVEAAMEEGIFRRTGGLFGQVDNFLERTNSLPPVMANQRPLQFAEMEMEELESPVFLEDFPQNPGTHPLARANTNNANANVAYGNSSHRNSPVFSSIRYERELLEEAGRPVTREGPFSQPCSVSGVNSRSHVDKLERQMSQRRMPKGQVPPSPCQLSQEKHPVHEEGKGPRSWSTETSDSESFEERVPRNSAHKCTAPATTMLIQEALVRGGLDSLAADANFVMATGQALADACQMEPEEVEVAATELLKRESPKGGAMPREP
T1 sequence (P54290 25-945 partner limits assumed): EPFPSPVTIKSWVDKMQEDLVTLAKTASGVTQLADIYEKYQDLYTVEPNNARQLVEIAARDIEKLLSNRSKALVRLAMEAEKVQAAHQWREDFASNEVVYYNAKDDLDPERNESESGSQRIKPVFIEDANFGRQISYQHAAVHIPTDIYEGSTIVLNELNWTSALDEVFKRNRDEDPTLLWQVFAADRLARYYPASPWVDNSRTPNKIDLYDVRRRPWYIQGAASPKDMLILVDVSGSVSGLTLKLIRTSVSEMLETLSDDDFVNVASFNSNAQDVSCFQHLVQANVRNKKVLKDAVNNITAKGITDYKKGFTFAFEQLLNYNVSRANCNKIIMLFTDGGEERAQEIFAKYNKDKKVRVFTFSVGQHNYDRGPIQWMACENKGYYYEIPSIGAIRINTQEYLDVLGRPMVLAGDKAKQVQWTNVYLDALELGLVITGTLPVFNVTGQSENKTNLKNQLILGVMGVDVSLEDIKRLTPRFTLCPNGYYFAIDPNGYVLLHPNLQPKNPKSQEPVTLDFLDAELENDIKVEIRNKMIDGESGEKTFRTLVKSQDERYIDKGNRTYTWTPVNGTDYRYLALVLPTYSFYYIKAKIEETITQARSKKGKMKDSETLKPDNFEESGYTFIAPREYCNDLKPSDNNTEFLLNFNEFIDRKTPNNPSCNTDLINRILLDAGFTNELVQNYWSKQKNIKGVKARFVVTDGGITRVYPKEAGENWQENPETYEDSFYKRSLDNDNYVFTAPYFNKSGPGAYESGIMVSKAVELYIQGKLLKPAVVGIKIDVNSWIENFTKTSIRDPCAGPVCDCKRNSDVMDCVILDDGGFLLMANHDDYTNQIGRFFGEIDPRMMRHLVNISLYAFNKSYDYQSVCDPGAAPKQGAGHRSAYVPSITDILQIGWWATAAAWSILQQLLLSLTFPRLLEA
T1 sequence (P54290 946-1091 partner limits assumed): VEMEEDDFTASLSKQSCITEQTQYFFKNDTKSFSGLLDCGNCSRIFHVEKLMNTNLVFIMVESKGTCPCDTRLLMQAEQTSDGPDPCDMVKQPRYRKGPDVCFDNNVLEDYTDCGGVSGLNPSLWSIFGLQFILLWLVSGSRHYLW
T1 sequence (P54283 whole entry partner): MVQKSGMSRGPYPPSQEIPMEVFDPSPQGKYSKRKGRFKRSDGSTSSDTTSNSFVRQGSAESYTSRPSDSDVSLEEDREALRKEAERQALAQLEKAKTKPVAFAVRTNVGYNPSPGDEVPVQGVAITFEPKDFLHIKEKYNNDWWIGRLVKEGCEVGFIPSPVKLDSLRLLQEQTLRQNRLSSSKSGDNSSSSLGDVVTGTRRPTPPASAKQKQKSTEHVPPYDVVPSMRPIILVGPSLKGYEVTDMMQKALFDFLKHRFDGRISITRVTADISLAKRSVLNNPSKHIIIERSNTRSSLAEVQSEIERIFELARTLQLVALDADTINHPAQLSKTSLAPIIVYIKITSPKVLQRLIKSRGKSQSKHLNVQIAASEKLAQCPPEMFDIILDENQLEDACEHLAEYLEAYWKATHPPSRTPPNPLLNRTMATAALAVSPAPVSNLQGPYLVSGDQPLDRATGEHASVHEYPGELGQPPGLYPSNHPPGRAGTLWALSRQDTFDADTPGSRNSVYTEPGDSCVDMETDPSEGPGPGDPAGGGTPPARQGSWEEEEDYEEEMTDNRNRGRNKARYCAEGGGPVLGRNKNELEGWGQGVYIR
T1 sequence (P97707 whole entry partner): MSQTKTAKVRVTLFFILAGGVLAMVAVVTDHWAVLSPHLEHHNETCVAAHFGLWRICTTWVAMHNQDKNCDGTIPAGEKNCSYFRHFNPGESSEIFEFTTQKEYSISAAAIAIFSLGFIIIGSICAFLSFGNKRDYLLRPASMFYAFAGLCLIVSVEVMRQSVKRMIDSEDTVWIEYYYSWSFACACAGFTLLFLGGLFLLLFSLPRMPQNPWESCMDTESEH

For `CCOC(=O)C1=C(COCCOCCN)NC(C)=C(C(=O)OC)C1c1cccc(Cl)c1Cl` (single isomer, unassigned; (-)) [EXAMPLE 50, (-)-2-{[2-(2-Aminoethoxy)ethoxy]methyl}-4-(2,3-dichlorophenyl)-3-ethoxycarbonyl-5-methoxycarbonyl-6-methyl-1,4-dihydropyridine], the “affinity for the dihydropyridine sites compared with its racemate” value in assay [1] (compound of example 50 versus its racemate) came out at 30 times. In addition, the Ki (commonly the dissociation constant of the complex between target and ligand, obtained from inhibition or displacement) in assay [1] (displacement of [3H]-PN 200-110, microsomal membranes of rat skeletal muscle) was 0.28 ± 0.15 nM. In addition, the “superiority compared with its racemate in preventing a calcium-induced vascular contraction” value in assay [2] was “more than double”. Also, the “Systolic blood pressure changes (ΔmmHg) after treatment, 1H 30 min” value in assay [3] (0.1 mg/kg, intravenous, 1 h 30 min) is -16 ± 2 mmHg. For the same compound, the “Systolic blood pressure changes (ΔmmHg) after treatment, 3H” value in assay [3] (0.1 mg/kg, intravenous, 3 h) was -18 ± 2 mmHg. Moreover, in assay [3] (0.1 mg/kg, intravenous, 6 h), the “Systolic blood pressure changes (ΔmmHg) after treatment, 6H” value was -21 ± 5 mmHg. Moreover, in assay [3] (same dose, six hours after treatment, versus racemate), the “activity compared with its racemate six hours after treatment” value is given as “approximately 4 times”. Moreover, the “activity compared with its racemate, in words” value in assay [3] (versus racemate) is “more potent and sustained even better over a period of time”.

These data come from US4983740A, “Process for 1,4-dihydropyridine compounds” (Adir et Compagnie, priority 1986, dated 1991).
